Data set [1] concerns SMI microtissues. As to the kind of experiment: Drug permeability across SMI microtissues. The note with it: for Efflux: Table VIII, 10 μM, 2 h.
Data set [2] is described as follows: in vitro. The following applies: human, Caco-2.
A short description of data set [3]: MTT viability assay on SMI microtissues after drug exposure. The note with it: human, SMI (small intestinal) microtissues. (In general: Tetrazolium dyes change colour on reduction, which living cells bring about.)
The conditions of data set [4]: cited from earlier work.
The nature of data set [5]: in vitro. The following applies: human.
Data set [6] relates to SMI microtissues.
Data set [7] addresses P-gp (Homo sapiens, UniProt P08183). As to the kind of experiment: in vitro.
The target of data set [8] is BCRP (Homo sapiens, UniProt Q9UNQ0). Kind of data set: in vitro.
BCRP, sequence (Q9UNQ0 whole entry): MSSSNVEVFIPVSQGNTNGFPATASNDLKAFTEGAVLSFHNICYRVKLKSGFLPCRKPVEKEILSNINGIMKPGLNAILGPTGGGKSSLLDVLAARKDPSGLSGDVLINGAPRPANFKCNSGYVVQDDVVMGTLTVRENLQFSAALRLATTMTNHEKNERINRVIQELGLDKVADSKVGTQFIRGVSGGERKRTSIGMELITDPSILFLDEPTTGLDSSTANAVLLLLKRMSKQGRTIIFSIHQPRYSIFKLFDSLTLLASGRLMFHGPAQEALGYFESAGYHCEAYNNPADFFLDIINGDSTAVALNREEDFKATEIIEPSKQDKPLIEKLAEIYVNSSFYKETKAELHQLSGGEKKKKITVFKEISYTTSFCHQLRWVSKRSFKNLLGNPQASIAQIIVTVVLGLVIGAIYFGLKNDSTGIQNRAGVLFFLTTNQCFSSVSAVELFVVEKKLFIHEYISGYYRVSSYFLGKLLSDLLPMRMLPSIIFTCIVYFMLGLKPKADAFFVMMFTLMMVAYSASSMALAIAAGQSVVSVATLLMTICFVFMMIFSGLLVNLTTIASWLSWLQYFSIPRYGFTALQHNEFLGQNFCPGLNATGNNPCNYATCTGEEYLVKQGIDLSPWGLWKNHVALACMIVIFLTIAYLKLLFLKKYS
In data set [9] the test system is Caco-2 cell monolayers. The following applies: Table VI; 10 μM, 2 h.
Data set [10] in a line: Drug permeability across SMI microtissues. The note with it: human, A-B Papp, Table VIII, 10 μM, 2 h, n = 3.

Like-named read-outs stand apart in the source and are kept apart here.

The term Papp A→B denotes how fast a substance crosses the layer from the apical side. The low end stands for poor permeation, the high end for ready permeation. The Papp is a coefficient for how fast a substance crosses the barrier. Read a high Papp as ready permeation. As a reminder, the viability is a read-out of living cells in per cent, often relative to untreated cells. For orientation: Papp B→A means how fast a substance crosses the layer from the basolateral side. A word on the efflux ratio: it is a quotient of directional permeabilities that is used to spot active efflux.

P-gp, sequence (P08183 whole entry): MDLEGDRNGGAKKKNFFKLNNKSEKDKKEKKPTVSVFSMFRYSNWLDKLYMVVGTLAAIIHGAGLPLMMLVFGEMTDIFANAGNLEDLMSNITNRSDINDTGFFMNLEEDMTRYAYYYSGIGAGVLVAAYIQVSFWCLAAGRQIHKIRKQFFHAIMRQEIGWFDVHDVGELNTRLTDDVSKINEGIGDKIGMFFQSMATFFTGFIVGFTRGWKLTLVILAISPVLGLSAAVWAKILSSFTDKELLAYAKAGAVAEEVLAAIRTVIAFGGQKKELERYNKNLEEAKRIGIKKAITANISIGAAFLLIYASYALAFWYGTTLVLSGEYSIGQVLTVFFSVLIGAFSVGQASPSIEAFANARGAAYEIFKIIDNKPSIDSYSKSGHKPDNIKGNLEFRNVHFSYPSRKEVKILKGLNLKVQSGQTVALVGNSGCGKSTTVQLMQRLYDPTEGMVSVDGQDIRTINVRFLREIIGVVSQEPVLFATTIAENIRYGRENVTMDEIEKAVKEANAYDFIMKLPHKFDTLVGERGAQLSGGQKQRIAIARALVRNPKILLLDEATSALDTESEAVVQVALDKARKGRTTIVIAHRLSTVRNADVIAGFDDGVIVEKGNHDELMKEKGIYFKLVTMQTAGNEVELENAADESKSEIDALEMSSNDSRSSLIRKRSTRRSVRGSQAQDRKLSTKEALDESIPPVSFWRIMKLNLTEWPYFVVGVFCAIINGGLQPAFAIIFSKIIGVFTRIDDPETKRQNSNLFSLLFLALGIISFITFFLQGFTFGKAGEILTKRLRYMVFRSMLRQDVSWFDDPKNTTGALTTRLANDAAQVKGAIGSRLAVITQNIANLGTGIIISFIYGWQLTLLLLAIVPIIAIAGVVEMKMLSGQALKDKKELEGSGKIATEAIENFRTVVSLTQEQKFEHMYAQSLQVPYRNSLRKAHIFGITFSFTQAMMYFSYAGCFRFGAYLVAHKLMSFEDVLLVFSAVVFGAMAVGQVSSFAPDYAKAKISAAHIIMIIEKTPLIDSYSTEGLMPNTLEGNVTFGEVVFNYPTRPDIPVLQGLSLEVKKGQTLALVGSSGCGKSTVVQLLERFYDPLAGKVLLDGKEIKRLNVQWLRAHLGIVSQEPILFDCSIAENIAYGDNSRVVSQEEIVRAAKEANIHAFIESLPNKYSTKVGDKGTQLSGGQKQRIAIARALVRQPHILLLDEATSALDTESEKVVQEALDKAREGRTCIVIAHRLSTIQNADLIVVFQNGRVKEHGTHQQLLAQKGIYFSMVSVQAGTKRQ

As to `CNC(=C[N+](=O)[O-])NCCSCc1ccc(CN(C)C)o1` [Ranitidine], the “Papp A- > B SMI microtissues” value in data set [1] (Table V, mean of n = 2 SMI microtissue lots) is 2.2 ± 0.5 10^−6 cm^s−1. In data set [2], this molecule showed an apical-to-basolateral permeability (Papp A→B) at 2 h, 10 μM of 0.2 ×10⁻⁶ cm/s and an apparent permeability coefficient (Papp) at 2 h, 10 μM of 0.1 ×10⁻⁶ cm/s. Moreover, in data set [3], the viability at 96 h, 1 µM came to 102%; the viability at 96 h, 10 µM was 98.1%; the viability at 96 h, 100 µM came to 96%. The “Fraction absorbed in humans (class)” value in data set [4] (Table IX, class in brackets, no reference given) is recorded as “Moderate”.

Regarding `C=C[C@H]1C[N@@]2CC[C@H]1C[C@@H]2[C@@H](O)c1ccnc2ccc(OC)cc12` [Quinidine], in data set [3], the viability at 96 h, 1 µM is 99.4%; the viability at 96 h, 10 µM is 100%; the viability at 96 h, 100 µM came to 99.3%. Further, the “Fraction absorbed (%) in humans” value in data set [4] (in vivo) is given as 80%.

Take `CC(=O)CC(c1ccccc1)c1c(O)c2ccccc2oc1=O` (centres unmarked) [Warfarin]: the apparent permeability coefficient (Papp) at 2 h, 10 μM in data set [5] (Lot #1 Mean A- > B Papp) was found to be 48.5 ± 8.18 ×10⁻⁶ cm/s; in data set [5] (Lot #2 Mean A- > B Papp), 24.3 ± 0.86 ×10⁻⁶ cm/s; in [5] (Lot #3 Mean A- > B Papp), 19.9 ± 3.45 ×10⁻⁶ cm/s; in [5] (SMI mean A- > B Papp), 36.7 ± 16.8 ×10⁻⁶ cm/s; in data set [2], 28.6 ×10⁻⁶ cm/s. For the same molecule, the apical-to-basolateral permeability (Papp A→B) at 2 h, 10 μM in data set [2] worked out at 27.8 ± 7.6 ×10⁻⁶ cm/s. For the same molecule, the “Papp A- > B SMI microtissues” value in data set [6] is reported as 22.3 ± 0.5 10^−6 cm^s−1.

In turn, `CCCC(=O)Nc1ccc(OCC(O)CNC(C)C)c(C(C)=O)c1` (centres unmarked) [Acebutolol] gave a Papp at 2 h, 10 μM in data set [2] of 0.4 ×10⁻⁶ cm/s. Moreover, in data set [3], the viability at 96 h, 1 µM was determined as 98.5% and the viability at 96 h, 10 µM turned out to be 97.5%.

`CN/C(=N/CCSCc1nc[nH]c1C)NC#N` [Cimetidine] returned an apparent permeability coefficient (Papp) at 2 h, 10 μM in data set [2] of 2.7 ×10⁻⁶ cm/s. Also, in [3], the viability at 96 h, 1 µM stood at 109%; the viability at 96 h, 10 µM worked out at 103%; the viability at 96 h, 100 µM was found to be 96.1%.

Take `C[C@H]1O[C@@H](O[C@H]2[C@@H](O)C[C@H](O[C@H]3[C@@H](O)C[C@H](O[C@H]4CC[C@@]5(C)[C@H](CC[C@@H]6[C@@H]5C[C@@H](O)[C@]5(C)[C@@H](C7=CC(=O)OC7)CC[C@]65O)C4)O[C@@H]3C)O[C@@H]2C)C[C@H](O)[C@@H]1O` [Digoxin]: in [7], the Papp B→A at 2 h, 10 μM was 29 ± 5 ×10⁻⁶ cm/s; the apparent permeability coefficient (Papp) at 2 h, 10 μM is 12.6 ± 0.74 ×10⁻⁶ cm/s; the efflux ratio at 2 h, 10 μM stood at 2.3. In data set [7] (with Verapamil 100 uM), the Papp at 2 h, 10 μM turned out to be 16 ± 1.75 ×10⁻⁶ cm/s and the efflux ratio at 2 h, 10 μM was determined as 1.4.

In data set [8], `O=C1CN(/N=C/c2ccc([N+](=O)[O-])o2)C(=O)N1` [Nitrofurantoin] returned a basolateral-to-apical permeability (Papp B→A) at 2 h, 10 μM of 28.4 ± 3.3 ×10⁻⁶ cm/s and a Papp at 2 h, 10 μM of 2.7 ± 1.6 ×10⁻⁶ cm/s. In [8] (with Novobiocin 50 uM), this molecule gave a Papp B→A at 2 h, 10 μM of 18.9 ± 1 ×10⁻⁶ cm/s and a Papp at 2 h, 10 μM of 4.7 ± 0.65 ×10⁻⁶ cm/s.

In the case of `Nc1nc2c(ncn2COCCO)c(=O)[nH]1` [Acyclovir], the apparent permeability coefficient (Papp) at 2 h, 10 μM in [2] amounted to 0.9 ×10⁻⁶ cm/s. Besides, in [3], the viability at 96 h, 1 µM was determined as 104%; the viability at 96 h, 10 µM amounted to 97.6%; the viability at 96 h, 100 µM turned out to be 91.1%.

In turn, `CCOC(=O)[C@H](CCc1ccccc1)N[C@@H](C)C(=O)N1CCC[C@H]1C(=O)O` [Enalapril] yielded a Papp at 2 h, 10 μM in data set [2] of 0.2 ×10⁻⁶ cm/s. In data set [3], the viability at 96 h, 1 µM came to 109%; the viability at 96 h, 10 µM stood at 105%; the viability at 96 h, 100 µM amounted to 99%.

Take `CC[C@H]1OC(=O)[C@H](C)[C@@H](O[C@H]2C[C@@](C)(OC)[C@@H](O)[C@H](C)O2)[C@H](C)[C@@H](O[C@@H]2O[C@H](C)C[C@H](N(C)C)[C@H]2O)[C@](C)(O)C[C@@H](C)C(=O)[C@H](C)[C@@H](O)[C@]1(C)O` [Erythromycin]: in data set [2], the Papp at 2 h, 10 μM was 0.2 ×10⁻⁶ cm/s.

As to `CC(C)NCC(O)COc1cccc2ccccc12` (centres unmarked) [Propranolol], in data set [9], the “Caco-2 mean A- > B Papp” value is on record as 12.9 10^−6 cm s^−1.

In data set [7], `CC(C)c1nc(N(C)S(C)(=O)=O)nc(-c2ccc(F)cc2)c1/C=C/[C@@H](O)C[C@@H](O)CC(=O)O` [Rosuvastatin] came in with a Papp B→A at 2 h, 10 μM of 9.4 ± 1 ×10⁻⁶ cm/s and a Papp at 2 h, 10 μM of 0.5 ± 0.07 ×10⁻⁶ cm/s. This molecule had a Papp B→A at 2 h, 10 μM in data set [7] (with Elacider 100 uM) of 5.3 ± 0.3 ×10⁻⁶ cm/s.

`Cc1ncc2n1-c1ccc(Cl)cc1C(c1ccccc1F)=NC2` [Midazolam] had an Efflux in data set [1] of 0.95. Also, the Papp A→B at 2 h, 10 μM in data set [10] (Transport A-B) is 14.4 ×10⁻⁶ cm/s; in data set [10] (line Transport B-A), 13.7 ×10⁻⁶ cm/s.

For `CN(C)C(=O)C(CCN1CCC(O)(c2ccc(Cl)cc2)CC1)(c1ccccc1)c1ccccc1` [Loperamide], in data set [7] (Efflux ratio, with inhibitor Verapamil 100 uM, substrate 10 μM, 2 hr), the efflux ratio at 2 h, 10 μM amounted to 6.5. In [7] (Mean A- > B Papp, No Inhibitor, substrate 10 μM, 2 hr, n = 3), this molecule displayed an apparent permeability (Papp) at 2 h, 10 μM of 0.9 ×10⁻⁶ cm/s. Besides, the Papp B→A at 2 h, 10 μM in [7] (Mean B- > A Papp, No Inhibitor, substrate 10 μM, 2 hr, n = 3) was 15.5 ± 4.6 ×10⁻⁶ cm/s.

Regarding `O=C1NC(c2ccccc2)(c2ccccc2)C(=O)N1COP(=O)(O)O` [Fosphenytoin], the Efflux in [1] was 0.31. Also, the apical-to-basolateral permeability (Papp A→B) at 2 h, 10 μM in [10] (Transport A-B) turned out to be 12.3 ×10⁻⁶ cm/s; in data set [10] (line Transport B-A) it was 3.77 ×10⁻⁶ cm/s.
